# Data as given in patent US20260137820A1, “TRIFUNCTIONAL COMPOUND AND USE THEREOF” (PEKING UNIVERSITY, priority 2022, published 2026).
# What was measured:
# HT-1080-FAP cells = assay: Determination of IC50 in cell experiment (competition with ^68Ga-FAPI-04); assay type: cell-based; conditions: Homo sapiens; vs 0.75 nM ^68Ga-FAPI-04, 37° C., 1 hour
# Method: Cell model: A human fibrosarcoma cell line (HT-1080-FAP) with high FAP expression was constructed by transfection of an FAP plasmid into a human fibrosarcoma cell line (HT-1080) by WuXi Biologics (China).
# HT-1080-FAP cells were inoculated into a 24-well plate 24 hours in advance, with the density being about 30% (calculated and estimated), 10^5 cells (countable) per well. 0.5 mL of a complete medium was added. The medium was changed to a serum-free medium. 12 groups of FAPI-CB-01 solutions with a concentration gradient of 0-5000 nM were set up, with internal replicates n=4 for each group. […] 0.75 nM ^68Ga-FAPI-04 was added to each well, followed by incubation at 37° C. for 1 hour. After washing twice with cold PBS and lysis, the radioactivity count was measured.
# FAP, DPP-4 and PREP = assay: Binding selectivity to homologous proteins (competitive inhibition of enzyme substrate, IC50); assay type: biochemical; conditions: from IC50 values, pNA release
# Method: Taking FAP target as an example, homologous proteins thereof include, but are not limited to, DPP-4 and PREP. The structural similarity thereof may lead to a decreased binding selectivity of the modified precursor molecules for the homologous proteins, resulting in an increased uptake in non-target organs.
# The binding selectivity for homologous proteins was determined by a competitive inhibition experiment on the substrate of the enzymes, and the binding/inhibition selectivity thereof is indirectly evaluated by the median inhibitory concentration (IC50) values obtained.
# By reference to the method described in Extended Structure-Activity Relationship and Pharmacokinetic Investigation of (4-Quinolinoyl)glycyl-2-cyanopyrrolidine Inhibitors of Fibroblast Activation Protein (FAP). Journal of Medicinal Chemistry 57, 3053-3074 (2014), published by Jansen et al., the initial rate of p-nitroaniline (pNA) released from the substrate (absorption at 405 nm) was measured by using a microplate reader (PerkinElmer, Victor™ X5) at 37° C. in a final volume of 200 μL to determine the kinetic properties of the enzyme activity. […]
# The determination method for IC50 on FAP is as follows: the substrate Z-Gly-Pro-p-nitroanilide (50 μM, Cat #G-58468, HEOWNS) was used to measure FAP activity at pH 7.4. […] The mixture was then incubated at 37° C. for 6 hours, and the release of pNA was then measured. […]
compound,measurement,setting,value
N#C[C@@H]1CC(F)(F)CN1C(=O)CNC(=O)c1ccnc2ccc(OCCCN3CCN(C(=O)[C@H](CCCCNC(=O)c4ccc(OS(=O)(=O)F)cc4)NC(=O)CN4CCN(CC(=O)O)CCN(CC(=O)O)CCN(CC(=O)O)CC4)CC3)cc12 [FAPI-CB-01],IC50,HT-1080-FAP cells,11.6 ± 0.32 nM
same,selectivity to FAP protein over homologous proteins DPP-4 and PREP,"FAP, DPP-4 and PREP",high selectivity
